{"source": "patent US7867976B2", "about": "“Nogo epitopic fragments for modulating immune response” (The Board of Trustees of the Leland Stanford Junior …, priority 2003, dated 2011)", "key": {"Normal Mouse Serum": {"molecular_target": "Normal Mouse Serum", "assay": "myelin antigen microarray; positive-control feature 'Anti-mouse IgG/M' capturing immunoglobulin of the serum in column 'a. Normal'"}, "whole lymph node cells": {"tested_on": "whole lymph node cells", "assay": "whole lymph node cell proliferation assay against Nogo and irrelevant peptides after Nogo-66 peptide immunization", "assay_type": "cell-based, mice", "settings": "draining lymph nodes at end of experiments", "description": "Induction of EAE and T cell responses with Nogo-66 peptides in susceptible mouse strains. To ascertain the potential for Nogo-A to act as a target autoantigen for autoimmune demyelination, we chose to focus on the exposed extracellular 66-amino acid loop, Nogo-66, since this should be the region most prone to interaction with immune cells. EAE susceptible SJL/J and C57BU6 female mice of the appropriate age were subcutaneously immunized with Nogo-66 derived peptides in CFA, in various concentration ranging from 200 μg to 1000 μg, together with intravenous administration of Pertussis toxin.\nThree different arbitrarily selected peptides were synthesized to encompass the whole sequence (peptides 1-22, 23-44 and 45-66). […] To evaluate the generation of a T cell proliferative response against the immunizing antigen, we collected draining lymph nodes at the end of the experiments and setup whole lymph node cell proliferation assays against our panel of Nogo and irrelevant peptides. […] Therefore, T cell epitopes appear to be slightly different between these two strains.\n(§1) Immunization. For Nogo immunizations, SJL/J and C57BU6 female mice were injected subcutaneously with Nogo-peptide emulsions (concentrations ranging from 100 μg to 500 μg per injection) in CFA, consisting of IFA (Difco) and 1 mg/ml heat-inactivated Mycobacterium tuberculosis (strain H37RA; Difco laboratories, Detroit Mich.). Animals received two subcutaneous injections a week apart in different sites (flank and groin); at the time of the second immunization and 48 hours later, mice were injected intravenously with Bordetella pertussis toxin (List Laboratories) in PBS, 500 ng/animal; For Nogo-A/B/C knockouts, animals were immunized subcutaneously with 100 μg of MOG35-55 peptide emulsion in CFA and received two intravenous injections of 300 ng of Bordetella pertussis toxin, at the time of immunization and 48 hours later. Chronic EAE was induced in SJL/J mice by subcutaneous injection of 100 mg of PLP139-151 peptide emulsion in CFA. Animals were clinically scored daily according to the following scale: 0-normal; 1-tail paralysis; 2-hind limb paraparesis; 3-complete hind limb paralysis; 4-forelimb paresis or paralysis; 5-death.\nProliferation assays. Whole lymph node cells were cultured in 96-well microtiter plates at 0.5×10^6 cells/well. Culture medium consisted of RPMI 1640 supplemented with L-glutamine (2 mM), sodium pyruvate (1 mM), non-essential amino acids (0.1 mM), penicillin (100 U/ml), streptomycin (0.1 mg/ml), 2-ME (5×10^−5 M) and 10% fetal bovine serum. Wells were pulsed with 1 μCi [^3H]TdR for the final 16 hours of culture, and incorporated radioactivity was measured using a betaplate scintillation counter."}, "[1]": {"tested_on": "myelin antigens (2304-feature spotted peptide array, 293 distinct antigens)", "assay": "antibody (B cell) response of sera from immunized animals on spotted peptide array", "assay_type": "in vivo, mice", "settings": "for epitope spreading of the B cell response to other myelin antigens: sera on proteome array, statistical and cluster analysis", "description": "Nogo-66 peptide immunization induces a B cell response with epitope spreading to other myelin antigens. To follow the induction of a specific antibody response to the immunizing Nogo peptides, and the possible spread to other myelin antigens, we used an 2304-feature spotted peptide array developed in our laboratory that contains 293 distinct antigens including proteins and sets of overlapping peptides representing all major EAE-relevant targets and several Nogo-66 overlapping peptides together with p472 (Robinson, 2001). Sera from several immunized animals was obtained at different time points after EAE induction with all three Nogo peptides, and hybridized to the proteome array according to our protocol.\nThis was particularly relevant after immunization with pNogo45-66 in both strains, and with pNogo23-44 for C57BU6 mice. Spreading of the B cell response evidenced a specific pattern for each immunizing antigen within each strain, with very little overlap between them.\nas §1, with “Chronic EAE was induced in SJL/J mice by subcutaneous injection of 100 mg of PLP139-151 peptide emulsion in CFA.” left out"}, "EAE in SJL/J mice": {"tested_on": "EAE in SJL/J mice", "assay": "adoptive transfer of Nogo-reactive T cells into SJL/J mice with PLP139-151 induced EAE", "assay_type": "in vivo", "settings": "cells of EAE animals that received TCL; compared with PLP139-151", "protocol": "We induced EAE in SJL/J mice by immunization with 100 μg of PLP139-151 peptide in CFA and followed these animals for disease course. At the peak of second relapse (day 31), animals were randomized into three groups and received either weekly PBS, anti-pNogo1-22 or anti-pNogo45-66 reactive T cells in PBS (average of 15 million cells), by intravenous administration for three weeks. […] For these animals, this improvement was maintained throughout the next 45 days of the experiment, up to 30 days after the last TCL administration.\nImmunization. For Nogo immunizations, SJL/J and C57BU6 female mice were injected subcutaneously with Nogo-peptide emulsions (concentrations ranging from 100 μg to 500 μg per injection) in CFA, consisting of IFA (Difco) and 1 mg/ml heat-inactivated Mycobacterium tuberculosis (strain H37RA; Difco laboratories, Detroit Mich.). […] Animals were clinically scored daily according to the following scale: 0-normal; 1-tail paralysis; 2-hind limb paraparesis; 3-complete hind limb paralysis; 4-forelimb paresis or paralysis; 5-death.\nProliferation assays. […] Wells were pulsed with 1 μCi [^3H]TdR for the final 16 hours of culture, and incorporated radioactivity was measured using a betaplate scintillation counter."}, "[2]": {"tested_on": "whole lymph node cells (T cells, dendritic cells)", "assay": "FACScan analysis of activation markers and co-stimulatory molecules after immunization", "assay_type": "cell-based, mice", "settings": "female SJL/J, 10 days post-immunization; compared with PLP139-151", "description": "We purified whole lymph node cells from female SJL/J animals 10 days post-immunization with PLP139-151, pNogo1-22 and pNogo45-66 and looked at the expression of several activation markers and co-stimulatory molecules by fluorescence activated cell scan (FACScan) analysis. […] Nogo-peptides are capable of normal presentation by APC and immunization leads to normal activation of T cells."}, "Bi MOG35-55 BIOTIN": {"molecular_target": "Bi MOG35-55 BIOTIN", "assay": "myelin antigen microarray, serum antibody binding to spotted feature 'Bi MOG35-55 BIOTIN'"}}, "data": [{"substance": "Anti-mouse IgG/M (antibody)", "values": [{"measurement": "microarray signal (quantity and unit not named on the sheet)", "setting": "Normal Mouse Serum", "value": 50000}]}, {"substance": "Nogo23-44 (LESEVAISEELVQKYSNSALGH; SEQ ID NO:5) [pNogo23-44, peptide 23-44 of the extracellular 66-amino acid loop Nogo-66]", "values": [{"measurement": "T cell proliferative response against the immunizing antigen", "setting": "whole lymph node cells; C57BU6 animals, listed as Ng23-44", "value": "T cell reaction"}, {"measurement": "epitope spreading of the B cell response to other myelin antigens", "setting": "[1]", "value": "to MOG and MBP peptides (especially in C57BU6 animals)"}]}, {"substance": "Nogo45-66 (VNSTIKELRRLFLVDDLVDSLK; SEQ ID NO:2) [pNogo45-66, peptide 45-66 of the extracellular 66-amino acid loop Nogo-66]", "values": [{"measurement": "T cell proliferative response against the immunizing antigen", "setting": "whole lymph node cells; SJL/J animals", "value": "strong and specific proliferative response"}, {"measurement": "T cell proliferative response against the immunizing antigen", "setting": "whole lymph node cells; SJL/J animals, listed as Ng45-66", "value": "T cell reaction"}, {"measurement": "in vitro proliferation at the end of the experiment", "setting": "EAE in SJL/J mice", "value": "much stronger than against the EAE inducing antigen"}, {"measurement": "strength as B cell antigen compared with the other peptides", "setting": "[1]; mouse, in vivo", "value": "much stronger B cell antigen than any of the other two synthesized peptides"}, {"measurement": "cell surface expression of CD25, CD18, CD40L, CD62, CD69, CD28 and CTLA4e in T cells or CD80, CD86, CD40 in dendritic cells", "setting": "[2]", "value": "could not find any difference"}]}, {"substance": "Nogo 1-22 (RIYKGVIQAIQKSDEGHPFRAY; SEQ ID NO:4) [pNogo1-22, peptide 1-22 of the extracellular 66-amino acid loop Nogo-66]", "values": [{"measurement": "T cell proliferative response against the immunizing antigen", "setting": "whole lymph node cells; C57BU6 animals, listed as Ng1-22", "value": "T cell reaction"}, {"measurement": "T cell proliferative response against the immunizing antigen", "setting": "whole lymph node cells; SJL/J animals", "value": "strong and specific proliferative response"}, {"measurement": "T cell proliferative response against the immunizing antigen", "setting": "whole lymph node cells; SJL/J animals, listed as Ng1-22", "value": "T cell reaction"}, {"measurement": "epitope spreading of the B cell response to other myelin antigens", "setting": "[1]", "value": "mainly to MBP peptides"}, {"measurement": "cell surface expression of CD25, CD18, CD40L, CD62, CD69, CD28 and CTLA4e in T cells or CD80, CD86, CD40 in dendritic cells", "setting": "[2]", "value": "could not find any difference"}]}, {"substance": "Normal Mouse Serum", "values": [{"measurement": "microarray signal (quantity and unit not named on the sheet)", "setting": "Bi MOG35-55 BIOTIN", "value": 5}]}]}
